This is an account of results in patent publication US20230293518A1 (Edgewise Therapeutics, Inc., priority 2020, published 2023).

This test has as its target skeletal myofibrils (myosin ATPase). The experiment in a line: Skeletal Myofibril ATPase Assay. In kind it is biochemical. The method, boiled down:
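Skeletal myofibril ATPase activity was measured via PK-LDH coupling, following NADH loss at 340 nm every 1.5-2 min for 45 min in PIPES/CaCl2/EGTA pCa buffer, pH 7.0. Max−Min slopes were normalised to 1% DMSO vehicle (100%) and fit to a four-parameter logistic (bottom ≥0) for IC50.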

As to `COc1ccc(-c2ccc(=O)n(CC(=O)NC(C)(C)c3ccccc3)n2)cc1` [IIIa-9, 2-(3-(4-methoxyphenyl)-6-oxopyridazin-1(6H)-yl)-N-(2-phenylpropan-2-yl)acetamide], the IC50 (Table 4C) was < 10 µM.
Same read-out and setting: with `COc1ccc(CNC(=O)Cn2nc(-c3ccc(OC)cc3)ccc2=O)cc1` [IIIb-34, N-(4-methoxybenzyl)-2-(3-(4-methoxyphenyl)-6-oxopyridazin-1(6H)-yl)acetamide] the figure was 10 to 100 µM; with `COc1ccc(-c2ccc(=O)n(CC(=O)Nc3cccc(Cl)c3)n2)cc1` [IIIb-52, N-(3-chlorophenyl)-2-(3-(4-methoxyphenyl)-6-oxopyridazin-1(6H)-yl)acetamide], > 100 µM.
`CCNC(=O)Cn1nc(-c2ccc(NC34CC(C3)C4)nc2)ccc1=O` [Compound I-36, 2-[3-[6-([bicyclo[1.1.1]pentan-1-yl]amino)pyridin-3-yl]-6-oxo-1,6-dihydropyridazin-1-yl]-N-ethylacetamide]: the IC50 (Table 4A) is < 10 µM.
Turning to `COc1ccc(-c2ccc(=O)n(CC(=O)NCc3ccno3)n2)cc1` [IIIa-34, N-(isoxazol-5-ylmethyl)-2-(3-(4-methoxyphenyl)-6-oxopyridazin-1(6H)-yl)acetamide], where the note is “Table 4C”, the IC50 is > 100 µM.
In the case of `O=C(Cn1nc(-c2ccc(OC(F)F)nc2)ccc1=O)NCc1ccc(Cl)cc1` [Compound I-70, N-(4-chlorobenzyl)-2-(3-(6-(difluoromethoxy)pyridin-3-yl)-6-oxopyridazin-1(6H)-yl)acetamide], under “Table 4A”, the IC50 was < 10 µM.
As for `CNC(=O)Cn1nc(-c2ccc(OC)cc2)ccc1=O` [IIIa-21, 2-(3-(4-methoxyphenyl)-6-oxopyridazin-1(6H)-yl)-N-methylacetamide], the IC50 (Table 4C) was 10 to 100 µM.
Turning to `CC(=O)Nc1ccc(-c2ccc(=O)n(CC(=O)NCc3ccccc3Cl)n2)cc1` [II-8, 2-(3-(4-acetamidophenyl)-6-oxopyridazin-1(6H)-yl)-N-(2-chlorobenzyl) acetamide], where the note is “Table 4B”, the half-inhibitory concentration (IC50) is < 10 µM.
As for `COCCNC(=O)Cn1nc(-c2ccc(OC)cc2)ccc1=O` [IIIb-47, N-(2-methoxyethyl)-2-(3-(4-methoxyphenyl)-6-oxopyridazin-1(6H)-yl)acetamide], the IC50 (Table 4C) was > 100 µM.
On to `O=C(Cn1nc(-c2cnc(NC34CC(C3)C4)nc2)ccc1=O)NC1CCC1` [Compound I-50, 2-(3-(2-(bicyclo[1.1.1]pentan-1-ylamino)pyrimidin-5-yl)-6-oxopyridazin-1(6H)-yl)-N-cyclobutylacetamide], for which the IC50 (Table 4A) is < 10 µM.
Still for that read-out and setting: next, `CCNC(=O)Cn1nc(-c2ccc(N(C)C34CC(C3)C4)nc2)ccc1=O` [Compound I-64, 2-(3-(6-(bicyclo[1.1.1]pentan-1-yl(methyl)amino)pyridin-3-yl)-6-oxopyridazin-1(6H)-yl)-N-ethylacetamide]: < 10 µM; `O=C(Cn1nc(-c2ccc(OC(F)F)nc2)ccc1=O)NC1CC(F)(F)C1` [Compound I-33, N-(3,3-difluorocyclobutyl)-2-(3-(6-(difluoromethoxy)pyridin-3-yl)-6-oxopyridazin-1(6H)-yl)acetamide]: > 100 µM.
As for `CC[C@H](C)NC(=O)Cn1nc(-c2ccccc2)ccc1=O` [IIIc-57, (S)-N-(sec-butyl)-2-(6-oxo-3-phenylpyridazin-1(6H)-yl)acetamide], the IC50 (Table 4C) lay within 10 to 100 µM.
As to `CCNC(=O)Cn1nc(-c2ccc(N3CC4(COC4)C3)nc2)ccc1=O` [Compound I-31, 2-(3-(6-(2-oxa-6-azaspiro[3.3]heptan-6-yl)pyridin-3-yl)-6-oxopyridazin-1(6H)-yl)-N-ethylacetamide], the concentration for half-maximal inhibition (IC50) (Table 4A) was > 100 µM.
Same read-out and setting: with `CCNC(=O)Cn1nc(-c2ccc(OC(F)F)nc2)ccc1=O` [Compound I-7, 2-[3-[6-(difluoromethoxy)pyridin-3-yl]-6-oxo-1,6-dihydropyridazin-1-yl]-N-ethylacetamide] the figure was < 10 µM.
Still for that read-out and setting: next, `O=C(Cn1nc(-c2ccc(OC(F)F)nc2)ccc1=O)NCc1cccc(Cl)c1` [Compound I-76, N-(3-chlorobenzyl)-2-(3-(6-(difluoromethoxy)pyridin-3-yl)-6-oxopyridazin-1(6H)-yl)acetamide]: 10 to 100 µM; `CCNC(=O)Cn1nc(-c2cnc(Nc3ccc(Cl)cc3)nc2)ccc1=O` [Compound I-1, 2-(3-(2-((4-chlorophenyl)amino)pyrimidin-5-yl)-6-oxopyridazin-1(6H)-yl)-N-ethylacetamide]: < 10 µM.
As to `COc1ccc(-c2ccc(=O)n(CC(=O)Nc3ccc4c(c3)OCCO4)n2)cc1` [IIIb-16, N-(2,3-dihydrobenzo[b][1,4]dioxin-6-yl)-2-(3-(4-methoxyphenyl)-6-oxopyridazin-1(6H)-yl)acetamide], where the note is “Table 4C”, the IC50 is < 10 µM.
Turning to `CCNC(=O)Cn1nc(-c2ccc(OC(C)(F)F)cc2)ccc1=O` [II-1, 2-(3-(4-(1,1-difluoroethoxy)phenyl)-6-oxopyridazin-1(6H)-yl)-N-ethylacetamide], the 50% inhibitory concentration (IC50) (Table 4B) was < 10 µM.
For the compound `O=C(Cn1nc(-c2cnc(OCC(F)(F)F)nc2)ccc1=O)NC1CCC1` [Compound I-71, N-cyclobutyl-2-(6-oxo-3-(2-(2,2,2-trifluoroethoxy)pyrimidin-5-yl)pyridazin-1(6H)-yl)acetamide], where the note is “Table 4A”, the IC50 is < 10 µM.
`COc1ccc(-c2ccc(=O)n(CC(=O)NC3CCCCC3)n2)c(F)c1` [IIIb-60, N-cyclohexyl-2-(3-(2-fluoro-4-methoxyphenyl)-6-oxopyridazin-1(6H)-yl)acetamide]: the IC50 (Table 4C) is > 100 µM.
Consider `CCNC(=O)Cn1nc(-c2ccc(C3CC3)nc2)ccc1=O` [Compound I-12, 2-(3-(6-cyclopropylpyridin-3-yl)-6-oxopyridazin-1(6H)-yl)-N-ethylacetamide], for which the IC50 (Table 4A) was in the range of 10 to 100 µM.
The same measure, in the same setting: next, `O=C(Cn1nc(-c2ccc(NC34CC(C3)C4)nc2)ccc1=O)N1CCC1` [Compound I-39, 2-(2-(azetidin-1-yl)-2-oxoethyl)-6-(6-(bicyclo[1.1.1]pentan-1-ylamino)pyridin-3-yl)pyridazin-3(2H)-one]: 10 to 100 µM.
`O=C(Cn1nc(-c2ccc(Cl)cc2)ccc1=O)Nc1ccc2[nH]ccc2c1` [IIIc-22, 2-(3-(4-chlorophenyl)-6-oxopyridazin-1(6H)-yl)-N-(1H-indol-5-yl)acetamide]: the IC50 (Table 4C) was < 10 µM.
On the same count and under the same terms, next, `COc1ccc(-c2ccc(=O)n(CC(=O)Nc3ncccc3C)n2)cc1` [IIIb-27, 2-(3-(4-methoxyphenyl)-6-oxopyridazin-1(6H)-yl)-N-(3-methylpyridin-2-yl)acetamide]: 10 to 100 µM.
As for `CCNC(=O)Cn1nc(-c2cnc(NC34CC(O)(C3)C4)nc2)ccc1=O` [Compound I-42, N-ethyl-2-(3-(2-((3-hydroxybicyclo[1.1.1]pentan-1-yl)amino)pyrimidin-5-yl)-6-oxopyridazin-1(6H)-yl)acetamide], the half-maximal inhibitory concentration (IC50) (Table 4A) is 10 to 100 µM.
In turn, `CCNC(=O)Cn1nc(-c2ccc(OCC3(F)COC3)cc2)ccc1=O` [IIIa-27, N-ethyl-2-(3-(4-((3-fluorooxetan-3-yl)methoxy)phenyl)-6-oxopyridazin-1(6H)-yl)acetamide] yielded an IC50 (Table 4C) of 10 to 100 µM.
`O=C(Cn1nc(-c2ccc(OC(F)F)nc2)ccc1=O)NC12CC(C1)C2` [Compound I-11, N-(bicyclo[1.1.1]pentan-1-yl)-2-(3-(6-(difluoromethoxy)pyridin-3-yl)-6-oxopyridazin-1(6H)-yl)acetamide] registered an IC50 (Table 4A) of 10 to 100 µM.
For `COc1ccc(Cl)cc1NC(=O)Cn1nc(-c2ccccc2)ccc1=O` [IIIc-62, N-(5-chloro-2-methoxyphenyl)-2-(6-oxo-3-phenylpyridazin-1(6H)-yl)acetamide], the IC50 (Table 4C) is > 100 µM.
As for `O=C(Cn1nc(-c2ccccc2)ccc1=O)Nc1ccccc1C(F)(F)F` [IIIc-52, 2-(6-oxo-3-phenylpyridazin-1(6H)-yl)-N-(2-(trifluoromethyl)phenyl)acetamide], the IC50 (Table 4C) is 10 to 100 µM.
Turning to `O=C(Cn1nc(-c2ccc(OC(F)F)cc2)ccc1=O)NCC(F)F` [II-15, N-(2,2-difluoroethyl)-2-(3-(4-(difluoromethoxy)phenyl)-6-oxopyridazin-1(6H)-yl)acetamide], for the setting “Table 4B”, the IC50 was in the range of 10 to 100 µM.
`COc1ccc(-c2ccc(=O)n(CC(=O)NCc3cnn(C)c3)n2)cc1` [IIIa-32, 2-(3-(4-methoxyphenyl)-6-oxopyridazin-1(6H)-yl)-N-((1-methyl-1H-pyrazol-4-yl)methyl) acetamide]: the IC50 (Table 4C) was > 100 µM.
Consider `CCNC(=O)Cn1nc(-c2ccc(OCCN(C)C)nc2)ccc1=O` [Compound I-26, 2-(3-(6-(2-(dimethylamino)ethoxy)pyridin-3-yl)-6-oxopyridazin-1(6H)-yl)-N-ethylacetamide], for which, under “Table 4A”, the IC50 is > 100 µM.
On to `CC(C)OCCCNC(=O)Cn1nc(-c2ccc(Cl)cc2)ccc1=O` [IIIc-33, 2-(3-(4-chlorophenyl)-6-oxopyridazin-1(6H)-yl)-N-(3-isopropoxypropyl)acetamide], for which the IC50 (Table 4C) lay in the range of 10 to 100 µM.
The same measure, in the same setting: with `CC[C@H](C)NC(=O)Cn1nc(-c2ccc(C)cc2)ccc1=O` [IIIc-2, (S)-N-(sec-butyl)-2-(6-oxo-3-(p-tolyl)pyridazin-1(6H)-yl)acetamide] the figure was < 10 µM.
With `CC[C@@H](C)NC(=O)Cn1nc(-c2ccc(OC(F)F)nc2)ccc1=O` [Compound I-66, (R)-N-(sec-butyl)-2-(3-(6-(difluoromethoxy)pyridin-3-yl)-6-oxopyridazin-1(6H)-yl)acetamide], the half-maximal inhibitory concentration (IC50) (Table 4A) was < 10 µM.
On the same count and under the same terms, next, `COc1ccc(-c2ccc(=O)n(CC(=O)NC(C)C)n2)cn1` [Compound I-16, N-isopropyl-2-(3-(6-methoxypyridin-3-yl)-6-oxopyridazin-1(6H)-yl)acetamide]: 10 to 100 µM.
For `CCNC(=O)Cn1nc(-c2ccc(OC)cc2)ccc1=O` [IIIa-3, N-ethyl-2-(3-(4-methoxyphenyl)-6-oxopyridazin-1(6H)-yl)acetamide], the 50% inhibitory concentration (IC50) (Table 4C) was < 10 µM.
Turning to `Cn1ccc2c(NC(=O)Cn3nc(-c4ccc(Cl)cc4)ccc3=O)cccc21` [IIIc-20, 2-(3-(4-chlorophenyl)-6-oxopyridazin-1(6H)-yl)-N-(1-methyl-1H-indol-4-yl)acetamide], the IC50 (Table 4C) was < 10 µM.
On to `O=C(Cn1nc(-c2ccc(OC(F)F)cc2)ccc1=O)NC1CCC1` [II-9, N-cyclobutyl-2-(3-(4-(difluoromethoxy)phenyl)-6-oxopyridazin-1(6H)-yl)acetamide], for which, under “Table 4B”, the IC50 is < 10 µM.

What is called IC50 is the concentration at which inhibition is half-maximal.
